Columns and labels:
Assay type in all cases: physicochemical
abatacept = biological target: T1, abatacept (Homo sapiens, UniProt P16410); experiment: viscosity of highly concentrated abatacept (fusion protein) solution, cone/plate rheometer; settings: Table I; abatacept 230 mg/mL, 150 mM additive, pH 7.5 ± 0.5, 21° C.
T1 construct: a fragment of a protein of interest which is the extracellular domain of the receptor of protein CTLA-4; purchased Bristol-Meyers Squibb (Orencia)
Excerpt: (§1) For this example, three solutions of monoclonal antibodies, i.e. a solution of bevacizumab (an IgG1 sold under the name Avastin® by Genentech/Hoffmann La Roche), a solution of infliximab (an IgG1/K sold under the name Remicade® by Schering-Plough), a solution of rituximab (an IgG1/K sold under the name mAbThera® by Hoffmann La Roche) and a solution of fusion protein, i.e. a solution of abatacept (IgG1-CTLA4 sold under the name Orencia® by Bristol-Meyers Squibb), were concentrated by ultrafiltration on Amicon® Ultra-15 filtration units with a cutoff threshold of 50 kDa.
(§2) The protein concentration of each concentrated solution was measured by UV spectroscopy (absorbance at 280 nm) after gravimetric dilution of the samples.
The effect of RVs 2 and 9 on the viscosity of these four highly concentrated therapeutic protein solutions was then evaluated comparatively with that of Arg and NaCl. To do this, the viscosity was measured using a cone/plate rheometer (TA Instrument, AR 2000 Ex, geometry of diameter 20 mm, cone of 0.5131°, solvent trap filled with water) at a temperature of 21° C. and in flow sweep mode with shear rates of between 5000 and 50 s^−1 (3 points per decade—steady-state sensing). […]

infliximab [1] = experiment: viscosity of highly concentrated infliximab solution, cone/plate rheometer at 21° C.; settings: for % viscosity reduction relative to the control “protein alone”: infliximab 107 mg/mL; for % viscosity reduction relative to the control infliximab solution: Table V
Excerpt: as §1, §2
The effect of RVs 2 and 9 on the viscosity of these four highly concentrated therapeutic protein solutions was then evaluated comparatively with that of Arg and NaCl.
The samples thus prepared were stored at room temperature and were analyzed using the rheometer within 24 hours of their preparation.
The pH of these formulations is the same as that of the commercial formulation of the corresponding therapeutic protein.
In this study, the highly concentrated infliximab and rituximab solutions used are the same as those which were prepared and used previously. […] The pH of these formulations is the same as that of the corresponding therapeutic protein formulation, i.e. 7.2±0.2 for infliximab, and 6.5±0.2 for rituximab.
The highly concentrated infliximab solution used is the same as that which was prepared and used previously. The “protein+RV” formulations were prepared in the presence of concentrations increasing from 0 to 200 mM of Arg or RV 9. The pH of these formulations is the same as that of the commercial infliximab formulation, i.e. 7.2±0.2.
The highly concentrated infliximab solution used is the same as that which was prepared and used previously.
The pH of these formulations is the same as that of the commercial infliximab formulation, i.e. 7.2±0.2.
The highly concentrated infliximab solution used was prepared in the same manner as that used previously. […] The pH of these formulations is the same as that of the commercial infliximab formulation, i.e. 7.2±0.2.

infliximab [2] = experiment: viscosity of highly concentrated infliximab formulation, cone/plate rheometer at 25° C. (example 7); settings: Table VII; infliximab 125 mg/mL, 150 mM additive, pH 7.2 ± 0.2, 25° C.
Description: For this example, two monoclonal antibody formulations, i.e. infliximab and trastuzumab (an IgG1/κ sold under the name Herceptin® by Genentech) were concentrated by ultrafiltration on Amicon® Ultra-50 centrifugal filtration units with a cutoff threshold of 50 kDa. The protein concentration of each concentrated solution was measured by UV spectroscopy (absorbance at 280 nm) after gravimetric dilution of the samples. […]
The effect of RVs 2 and 11 on the viscosity of these two highly concentrated therapeutic protein formulations was then evaluated comparatively to that of Arg and NaCl. To do this, the viscosity was measured using a cone/plate rheometer (TA Instrument, AR 2000 Ex, geometry of diameter 20 mm, cone of 0.5131°, solvent trap filled with water) at a temperature of 25° C. and in flow sweep mode with shear rates of between 5000 and 50 s^−1 (3 points per decade—steady-state sensing).
For this example, the “protein+RV” formulations were prepared by mixing a solution of RV at about 1 M obtained in example 1 with one of the concentrated infliximab and trastuzumab formulations prepared previously and the corresponding buffer so as to reach a final RV concentration of 150 mM and a final protein concentration of 125 mg/mL for infliximab and 200 mg/mL for trastuzumab. […]

T1 sequence (P16410 with tags, fused parts or gaps limits assumed): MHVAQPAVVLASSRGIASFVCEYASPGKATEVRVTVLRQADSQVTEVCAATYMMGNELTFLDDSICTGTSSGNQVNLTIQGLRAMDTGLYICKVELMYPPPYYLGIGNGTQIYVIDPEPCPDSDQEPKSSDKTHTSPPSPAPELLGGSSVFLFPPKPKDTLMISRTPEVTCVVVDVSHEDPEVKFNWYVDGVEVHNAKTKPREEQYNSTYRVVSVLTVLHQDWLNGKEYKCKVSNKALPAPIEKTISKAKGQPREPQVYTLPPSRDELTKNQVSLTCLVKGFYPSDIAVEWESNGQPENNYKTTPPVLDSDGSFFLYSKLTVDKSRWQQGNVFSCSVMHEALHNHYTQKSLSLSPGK

Cl.N=C(N)NCCC[C@H](N)C(=O)O [Arg, L-arginine hydrochloride salt]
% viscosity reduction relative to the control “protein alone” (abatacept): 31% | % viscosity reduction relative to the control “protein alone” (infliximab [1]; Table I, 150 mM additive, pH 7.2 ± 0.2, 21° C.): 32% | % viscosity reduction relative to the control “protein alone” (infliximab [1]; Table II, 150 mM additive, pH 7.2 ± 0.2): 32% | % viscosity reduction relative to the control “protein alone” (infliximab [1]; Table IV, additive 25 mM, pH 7.2 ± 0.2): 9% | % viscosity reduction relative to the control “protein alone” (infliximab [1]; Table IV, additive 50 mM, pH 7.2 ± 0.2): 13% | % viscosity reduction relative to the control “protein alone” (infliximab [1]; Table IV, additive 100 mM, pH 7.2 ± 0.2): 9% | % viscosity reduction relative to the control “protein alone” (infliximab [1]; Table IV, additive 150 mM, pH 7.2 ± 0.2): 31% | % viscosity reduction relative to the control “protein alone” (infliximab [1]; Table IV, additive 200 mM, pH 7.2 ± 0.2): 34% | % viscosity reduction relative to the control infliximab solution (infliximab [1]; infliximab 80 mg/mL, additive at 150 mM, pH 7.2 ± 0.2): 25% | % viscosity reduction relative to the control infliximab solution (infliximab [1]; infliximab 90 mg/mL, additive at 150 mM, pH 7.2 ± 0.2): 30% | % viscosity reduction relative to the control infliximab solution (infliximab [1]; infliximab 100 mg/mL, additive at 150 mM, pH 7.2 ± 0.2): 39% | % viscosity reduction relative to the control infliximab solution (infliximab [1]; infliximab 110 mg/mL, additive at 150 mM, pH 7.2 ± 0.2): 22% | viscosity lowering on average, irrespective of the infliximab concentration (infliximab [1]; average over infliximab 80-110 mg/mL, additive at 150 mM): about 29% | % of viscosity reduction relative to the control “protein alone” (infliximab [2]): 11%

From patent US9278131B2, “Process for lowering the viscosity of highly concentrated protein solutions” (ADOCIA, priority 2012, dated 2016)
